# Experiments:
# [1] = system: osteoblast cell cultures; experiment: Inhibition of osteoblast binding to thiolpeptide 1-coated surfaces by dissolved cyclic RGDfK in the adhesion medium; assay type: cell-based, mouse, human, rat; conditions: dissolved peptide in the adhesion medium; coating 10 μM; FIG. 4
# Protocol: FIG. 4: Adhesion of osteoblasts to test surfaces coated with thiolpeptide 1-SMPP derivative (10 μM in the coating solution) (see FIG. 2)
# x axis: Concentration of dissolved cyclo-RGDfK (without molecular anchor) in the adhesion medium (μM),
# To do this, 48-well plates (Costar, "non-tissue culture treated", Art. No. 3547) were each coated with 250 μl of PBS (phosphate-buffered saline), pH=8.3, 2% BSA, per well and incubated overnight at room temperature in order to generate a BSA layer on the polystyrene. The plates were then washed with 250 μl of PBS, pH=8.3, per well and incubated at room temperature for 1 hour with 250 μl each of a solution containing 100 μg/ml of SMPB in PBS, pH 8.3. Washing of the wells was then carried out three times using 250 μl of PBS, pH 8.3, each time. For the preparation of the coating solutions, the appropriate thiol-RGD peptide was prepared in the following final concentrations in PBS, pH 8.3: 1 nM, 10 nM, 100 nM, 1 μM, 10 μM, 100 μM and 1 mM. After addition of 250 μl each of coating solution/well, the plates were incubated at room temperature overnight and then washed three times with PBS, pH 8.3. […]
# (§1) The quantification of the adhered cells was carried out indirectly via the activity determination of the cellular enzyme N-acetylhexosaminidase using an appropriate standard curve according to the method of Landegren (1984, J. Immunol. Methods, 67: 379-388).
# [2] = system: human platelets; experiment: Adhesion of human platelets to PMMA bone cement shaped articles coated with cell-selective acrylate peptides; assay type: cell-based; conditions: for cell adhesion, calculated Abs (405 nm), platelets: first part experiment
# Description: (§2) The model used for material coating with RGD peptides of different cell selectivity to obtain implants having locally differentiated bioactive coating patterns which should stimulate the adhesion of different cell species was polymerized PMMA bone cement shaped articles. To these were covalently coupled two RGD peptides of different cell selectivity. In this case acrylate peptide 3, type iiia, having a selectivity for alphav beta3 -/alphav beta5 -integrin-bearing osteoblasts, and acrylate peptide 5, type iiia, having a selectivity for […] -positive platelets were bonded to the PMMA shaped articles as described for Example 3.
# (§3) a. In the first part experiment, PMMA shaped articles were coated with the acrylate peptides 3 and 5 in concentrations in the coating solution of 100 μM, 10 μM and 1 μM in each case. These RGD peptide-coated materials were then inoculated in parallel with osteoblasts and platelets and their cell adhesion was determined.
# (§4) MC3T3 H1 osteoblasts (350,000 cells/cm^2) and human platelets (50 million cells/cm^2) were in each case inoculated in parallel both onto acrylate peptide 3- and acrylate peptide 5-coated PMMA shaped articles and their cell adhesion was determined as described in Example 3.
# Human platelets were prepared following the process of Shattil and Brass (J. Biol. Chem. 262:992-1000, 1987).
# (§5) b. In the second part experiment, PMMA shaped articles were likewise coated with the acrylate peptides 3 and 5, but only in a concentration in the coating solution of 100 μM in each case. These RGD peptide-coated materials were then inoculated in parallel with osteoblasts, platelets or an osteoblast/platelet mixture and their cell adhesion was determined. MC3T3 H1 osteoblasts (350,000 cells/cm^2), human platelets (50 million cell/cm^2) and a cell mixture (350,000 osteoblasts/cm^2 […] 50 million platelets/cm^2) were in each case inoculated in parallel both onto acrylate peptide 3- and acrylate peptide 5-coated PMMA shaped articles and their cell adhesion was determined as described in Example 3.
# [3] = system: MC3T3 H1 osteoblasts; experiment: Adhesion of MC3T3 H1 osteoblasts to PMMA bone cement shaped articles coated with cell-selective acrylate peptides; assay type: cell-based, mouse; conditions: for cell adhesion, calculated Abs (405 nm), osteoblasts: first part experiment
# Description: as §2, §3, §4, §5
# [4] = system: osteoblasts/platelets mixture; experiment: Adhesion of an osteoblast/platelet mixture to PMMA bone cement shaped articles coated with cell-selective acrylate peptides; assay type: cell-based, mouse, human; conditions: second part experiment; 100 μM peptide in the coating solution
# Protocol: as §5
# [5] = system: MC3T3 H1 osteoblasts; experiment: Adhesion of MC3T3 H1 osteoblasts to PMMA moulded articles coated with acrylate RGD peptides; assay type: cell-based, mouse; conditions: for maximal adsorption rates: 48,000 cells/cm^2, 1 hour
# Protocol: For the covalent coupling of these peptides to polymerized PMMA (polymethyl methacrylate) surfaces, appropriate shaped articles of differing porosity (diameter: 10 mm; height: 2 mm) were prepared from three different PMMA components.
# Bone cement based on PMMA (Merck KGaA, Germany, Licence No. 5181.00.00) corresponding to the product description (40 g of powder+20 ml of liquid).
# 10 g of PMMA/PHEMA (polyhydroxyethyl methacrylate) granules, particle size 0.5-0.6 mm (Biomet) were mixed with 1.3 ml of an HEMA solution (68.6% HEMA, 29.4% TEGMA [triethylene glycol dimethacrylate], 2% tBPB, [tert-butyl peroxybenzoate]) and adhered by means of this to a porous support material.
# 10 g of PMMA granules (Plex Y7H, Rohm, Germany), particle fraction 0.7-2 mm were mixed with 1.5 ml of a methyl methacrylate (MMA) solution (68.6% MMA, 29.4% TEGMA, 2% tBPB) and adhered by this means to a porous support material.
# For the covalent coupling of the acrylate peptides to the prepolymerized PMMA moulded articles, stock solutions of the acrylate peptides 1, 2, 3 and 4 were prepared in a final concentration of 100 μM in each case in DMSO/0.2% camphorquinone (w/v). Then, by dilution with isopropanol/0.2% camphorquinone (w/v), concentration series having final peptide concentrations of 0.1 nM, 1 nM, 10 nM, 100 nM, 1 μM and 10 μM in each case were prepared. The moulded articles were incubated in daylight and at room temperature for 2 hours and then stored at 4° C. in the dry state. Before use, the samples were washed with PBS, pH 7.4, to remove unbound peptides and stored at 4° C. in PBS, pH 7.4, overnight.
# By addition of 250 μl/moulded article each of a 5% strength BSA solution in PBS, pH 7.4, and subsequent incubation for 2 hours at room temperature and washing once with PBS, pH 7.4, non-specific cell-binding sites were blocked.
# Subsequently, the adhesion of osteoblasts of the MC3T3 H1 line, obtained from the calvaria of neonatal mice (Heermeier et al., 1995, Cells and Materials 5: 309-321) to the above-described peptide-coated surfaces was investigated.
# The MC3T3 H1 osteoblasts were inoculated at an inoculation density of 48,000 cells/cm^2, as described above, in Costar 48-well plates, with PMMA moulded articles coated with RGD peptide and then incubated for 1 hour at 37° C., 95% atmospheric humidity and 5% CO2. Cells non-adhered during the experiment were then washed off twice with PBS, pH 7.4.
# as §1
# [6] = 1 μM peptide in the coating solution
# [7] = 10 μM peptide in the coating solution
# [8] = 100 μM peptide in the coating solution
# [9] = second part experiment, 100 μM peptide in the coating solution
# [10] = bone cement shaped articles, FIG. 8
# [11] = different PMMA moulded articles
compound,measurement,setting,value
"N=C(N)NCCC[C@@H]1NC(=O)[C@H](CCCCN)NC(=O)[C@@H](Cc2ccccc2)NC(=O)[C@H](CC(=O)O)NC(=O)CNC1=O [cyclic RGDfK, cyclo-RGDfK (Arg-Gly-Asp-DPhe-Lysine)]",inhibition of osteoblast binding to thiolpeptide 1-sulpho-SMPB derivative-coated surfaces,[1],completely inhibited
cyclo (RGDf[acrylic-ahx-tEG-KG]) [acrylate peptide 5],"cell adhesion, calculated Abs (405 nm), platelets",[2]; [6],about 0.2 Abs
same,"cell adhesion, calculated Abs (405 nm), platelets",[2]; [7],about 0.5 Abs
same,"cell adhesion, calculated Abs (405 nm), platelets",[2]; [8],about 4.0 Abs
same,"cell adhesion, Abs, platelets alone",[2]; [9],about 4.0 Abs
same,"cell adhesion, calculated Abs (405 nm), osteoblasts",[3]; [6],about 0.2 Abs
same,"cell adhesion, calculated Abs (405 nm), osteoblasts",[3]; [7],about 1.0 Abs
same,"cell adhesion, calculated Abs (405 nm), osteoblasts",[3]; [8],about 1.5 Abs
same,"cell adhesion, Abs, osteoblasts alone",[3]; [9],about 1.5 Abs
same,"cell adhesion, Abs, osteoblasts/platelets inoculated as a mixture",[4],about 6.5 Abs
cyclo(RGDf[acrylic-ahx-K]) [acrylate peptide 1],stimulation of cell adhesion (in words),"[5]; PMMA carriers, comparison of anchor lengths",almost inactive
same,cell adsorption rates increased in comparison with uncoated surfaces,[5]; [10],about 1.5 fold
same,maximal adsorption rates,[5]; [11],about 20%
cyclo(RGDf[acrylic-ahx-ahx-K]) [acrylate peptide 2],cell adsorption rates increased in comparison with uncoated surfaces,[5]; [10],5-15 fold
same,maximal adsorption rates,[5]; [11],80-100%
same,EC50,"[5]; different PMMA moulded articles, read-out: half-maximal cell bindings, RGD peptide concentration in the coating solution",0.001 to 10 µM
same,cell adsorption rates increased in comparison with uncoated surfaces,"[5]; porous PMMA/PHEMA granule shaped articles, FIG. 9",2-5 fold
same,cell adsorption rates increased in comparison with uncoated surfaces,"[5]; porous Plex Y7H granule shaped articles, FIG. 10",2-3 fold
